Columns and labels:
[1] = test system: CD8+ CD45RA/CD27 T cell subsets; test: Proliferation assay (Ki67 staining) with PDL-1/2 blockade and p38 inhibitor; assay type: cell-based, human; details: CD8+ T cells at all four stages of differentiation (N, CM, EM, EMRA); 4 days anti-CD3 and irradiated autologous APCs; 10 μg/ml PDL1/2 blocking antibodies, 500 nM BIRB796; 4 donors
Procedure: It was investigated whether either PD-1 or p38 signalling pathways contributed to the decreased proliferative activity of EMRA CD8^+ T cells. The four CD45RA/CD27 defined T cell subsets were isolated and then stimulated with anti-CD3 antibody and irradiated autologous APCs in the presence of either 10 μg/ml PDL1/2 blocking antibodies, 500 nM BIRB796 or both inhibitors together. Proliferative activity was determined by staining with Ki67 antibody. Representative histograms for the EMRA subset with and without the inhibitors is shown in FIG. 4A, while pooled results from all four subsets from 4 separate donors is shown in FIG. 4B.
PBMCs or sorted CD8^+ T cells were stimulated with 0.5 μg/ml plate coated anti-CD3 (OKT3) for 4 days and proliferation was assessed by staining for the nuclear antigen Ki67 that is expressed by cells at all stages of the cell cycle.
(§1) Signalling through PD-1 on purified total CD8^+ and CD27/CD45RA defined CD8^+ subsets was blocked by adding 10 μg/ml each of anti-PD-L1 (29E.2A3.C6) and anti-PD-L2 (24F.10C12.G12), or 10 μg/ml each of IgG2a (Mg2a-53) or IgG2b (MPC-11) isotype control antibodies (Abcam) at the start of the 4 day stimulation period with anti-CD3 (purified OKT3, 0.5 μg/ml) and irradiated APCs. The p38 inhibitor BIRB796 was added to the 4 day cultures at a final concentration of 500 nM and 0.1% DMSO was used as control.

[2] = test system: CD8+ CD45RA/CD27 T cell subsets; test: Telomerase activity (TRAP assay) with PDL-1/2 blockade and p38 inhibitor; assay type: cell-based, human; details: 4 days anti-CD3 and irradiated autologous APCs
Text: It was next investigated whether p38 or PD-1 signalling were involved in the decreased telomerase activity in EMRA CD8^+ T cells. […] Once again, CD8^+ T cell subsets were stimulated with anti-CD3 and irradiated autologous APCs in the presence of both inhibitors separately or together as in FIG. 4. […] The blockade of PD-1 signalling had no effect on telomerase activity in any of the subsets.
Purified CD8^+ T cell populations (2×10^5 cells) were snap-frozen after stimulation for 4 days with 0.5 μg/ml plate coated anti-CD3 (OKT3) and irradiated APCs. Telomerase activity was determined using the telomeric repeat amplification protocol (TRAP; TRAPeze telomerase detection kit; Chemicon) according to the protocol provided by the manufacturer. The absolute numbers of CD8^+ T cells were enumerated using trypan blue (Sigma). The TRAP assay was performed with samples adjusted to 500 Ki67^+ T cells per reaction to control for the different extents of proliferation in the different subsets after activation.
as §1, with “The p38 inhibitor BIRB796 was added to the 4 day cultures at a final concentration of 500 nM and 0.1% DMSO was used as control.” left out

For `Cc1ccc(-n2nc(C(C)(C)C)cc2NC(=O)Nc2ccc(OCCN3CCOCC3)c3ccccc23)cc1` [BIRB796], the “proliferative activity (Ki67 staining)” value [1] was “increased proliferative activity”, the telomerase activity ([2]; CD45RA+CD27− (EMRA) CD8+ population, 500 nM BIRB796, 10 μg/ml anti-PDL1/2, p<0.05, 4 donors) was “significant increase” and the telomerase activity ([2]; N, CM and EM CD8+ T cells, p38 signalling blocked (500 nM BIRB796), results not significant) was “trend towards increased telomerase activity”.

From US20150017185A1, “METHOD TO IMPROVE THE IMMUNE FUNCTION OF T CELLS” (UCL BUSINESS PLC, priority 2011, published 2015)
